The target of the test is T1, VEGFR2 (Homo sapiens, UniProt P35968).
T1 construct: gene KDR
Briefly: kinase enzyme assay (Reaction Biology), 10-point dose response, […] ATP. It is filed as biochemical.

T1 sequence (P35968 20-1356): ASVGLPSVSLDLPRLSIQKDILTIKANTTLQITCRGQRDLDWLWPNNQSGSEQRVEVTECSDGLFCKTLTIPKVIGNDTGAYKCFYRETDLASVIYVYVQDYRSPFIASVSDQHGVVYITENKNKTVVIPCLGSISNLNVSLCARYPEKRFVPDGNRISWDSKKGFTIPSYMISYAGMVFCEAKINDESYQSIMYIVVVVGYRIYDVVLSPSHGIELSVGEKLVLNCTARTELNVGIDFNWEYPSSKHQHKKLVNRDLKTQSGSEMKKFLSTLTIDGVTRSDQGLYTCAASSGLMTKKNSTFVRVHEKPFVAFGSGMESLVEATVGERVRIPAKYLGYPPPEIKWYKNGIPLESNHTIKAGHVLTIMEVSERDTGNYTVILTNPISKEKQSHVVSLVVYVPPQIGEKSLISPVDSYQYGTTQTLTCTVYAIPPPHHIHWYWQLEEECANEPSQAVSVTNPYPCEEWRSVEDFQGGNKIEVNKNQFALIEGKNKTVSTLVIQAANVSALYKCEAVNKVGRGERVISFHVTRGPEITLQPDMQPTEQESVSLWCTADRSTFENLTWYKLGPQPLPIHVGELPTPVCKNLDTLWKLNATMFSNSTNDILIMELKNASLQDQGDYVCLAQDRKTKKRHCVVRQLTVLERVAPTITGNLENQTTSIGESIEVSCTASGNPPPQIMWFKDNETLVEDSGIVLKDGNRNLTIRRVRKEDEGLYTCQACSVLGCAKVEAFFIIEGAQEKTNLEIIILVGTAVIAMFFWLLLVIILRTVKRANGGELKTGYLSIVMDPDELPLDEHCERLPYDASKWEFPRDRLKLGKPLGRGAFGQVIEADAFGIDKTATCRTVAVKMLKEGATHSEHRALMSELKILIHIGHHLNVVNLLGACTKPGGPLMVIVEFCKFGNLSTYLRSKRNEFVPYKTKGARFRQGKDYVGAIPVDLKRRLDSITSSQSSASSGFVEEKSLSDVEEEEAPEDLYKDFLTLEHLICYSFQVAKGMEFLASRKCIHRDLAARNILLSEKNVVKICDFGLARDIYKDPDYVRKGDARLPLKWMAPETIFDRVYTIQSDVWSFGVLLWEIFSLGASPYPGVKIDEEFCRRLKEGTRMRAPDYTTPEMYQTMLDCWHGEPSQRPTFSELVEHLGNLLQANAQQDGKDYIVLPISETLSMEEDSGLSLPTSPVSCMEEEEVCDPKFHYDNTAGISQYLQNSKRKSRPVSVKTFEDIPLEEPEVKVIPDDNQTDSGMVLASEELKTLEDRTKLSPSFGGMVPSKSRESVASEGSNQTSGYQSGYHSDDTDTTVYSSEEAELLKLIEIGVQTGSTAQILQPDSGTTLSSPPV

For the molecule `Cc1cccc(-c2nc3n(c2-c2ccc4ncnn4c2)CCN3)n1` [TU2218], the IC50 (usually the midpoint of a concentration-inhibition curve) came out at 4.9 nM.

The values above are taken from paper PMC11303640, “ALK5/VEGFR2 dual inhibitor TU2218 alone or in combination with immune checkpoint inhibitors enhances immune-mediated antitumor effects” (Cancer Immunology, Immunotherapy : CII, 2024).
